These results are taken from BindingDB's records for doi:10.1016/S0960-894X(01)81027-1 (1993).

pIC50: −log10 of the molar value. Structures can show the parent of a compound that is named as a salt.

Sequence of Sigma non-opioid intracellular receptor 1 (Cavia porcellus) (Q60492 whole entry, looked up): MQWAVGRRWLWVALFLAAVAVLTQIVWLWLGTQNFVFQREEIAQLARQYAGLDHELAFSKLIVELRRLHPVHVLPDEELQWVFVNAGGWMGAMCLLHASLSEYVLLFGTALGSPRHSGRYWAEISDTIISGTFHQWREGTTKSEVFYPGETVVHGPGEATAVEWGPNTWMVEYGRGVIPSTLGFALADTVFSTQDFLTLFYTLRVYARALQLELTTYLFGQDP

This test has as its target Sigma non-opioid intracellular receptor 1 (Cavia porcellus) (UniProt Q60492). The test can be described thus: The compound was evaluated for binding affinity against sigma receptor using [3H]DTG radioligand in guinea pig membranes.
Usually pIC50 stands for the negative decadic logarithm of the IC50, by convention in mol/L. Low readings indicate a high IC50, high ones a low IC50. Turning to `CC(=NC12CC3CC(CC(C3)C1)C2)NC1CCCCC1` [N-Adamantan-1-yl-N'-cyclohexyl-acetamidine], the pIC50 was 7.14.

Turning to `CC(=Nc1ccccc1C)Nc1ccccc1C` [N,N'-Di-o-tolyl-acetamidine; hydrochloride], the negative logarithm of the IC50 (pIC50) is 7.82.

In turn, `CC(=NC12CC3CC(CC(C3)C1)C2)NC12CC3CC(CC(C3)C1)C2` [N,N'-Di-adamantan-1-yl-acetamidine] showed a negative logarithm of the IC50 (pIC50) of 7.80.

Compound `CC(=Nc1ccccc1C)NC1CC2CCC1C2` (configuration not stated) [N-Bicyclo[2.2.1]hept-2-yl-N'-o-tolyl-acetamidine] had a negative logarithm of the IC50 (pIC50) of 8.05. The result for `CC(=Nc1ccccc1C)NC12CC3CC(CC(C3)C1)C2` [N-Adamantan-1-yl-N'-o-tolyl-acetamidine; hydrochloride] reads 8.22; that for `CC(=Nc1ccc(Br)cc1C)Nc1ccc(Br)cc1C` [N,N'-Bis-(4-bromo-2-methyl-phenyl)-acetamidine], 7.59. The result for `CC(=Nc1ccccc1C)NC1CCCCC1` [N-Cyclohexyl-N'-o-tolyl-acetamidine; hydrochloride] reads 8.05.
